Reference: PubChem BioAssay (NCI)
Values joined by “and” are separate entries in the source; they are usually repeats but may differ in a detail not shown here. Equal values may be shown once.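 Dose response: 5 concentrations. Exposure: 48 h. Format: 96-well plates. Endpoint: linear interpolation; highest concentration if not reached. GI50 marks 50% less growth. The concentration for full growth arrest is given as TGI.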

System: SW-620 colon
Test: DTP human tumour cell line panel, 48 h

Structure (SMILES)	GI50	TGI
c1ccc(-c2[nH]ncc2-c2ccnc(-c3ccc(OCCn4ccnc4)cc3)c2)nc1	> 25 µM	> 25 µM
O=C1c2cccc(Oc3ccccc3)c2C(=O)c2cccc(Oc3ccccc3)c21	> 100 µM	> 100 µM
O=C(OCc1ccc2c(Br)cc(Br)c(O)c2n1)c1cc2ccccc2[nH]1	0.333 µM	1.13 µM
CC(C)(CO)CNC(=O)c1ccc2[nH]c(O)c(N=Nc3ccc(S(N)(=O)=O)cc3)c2c1	> 25 µM	> 25 µM
Cc1cc(O)c2c(c1)C(=O)C=CC2=O	7.3 µM and 2.67 µM	23.9 µM and 22.4 µM
CC1(C)N=C(N)N=C(N)N1c1ccc(CCC(=O)Nc2ccc(S(=O)(=O)F)cc2)cc1	0.371 µM	> 100 µM
N#CC1(c2ccc(NC(=O)c3cccnc3NCc3ccncc3)cc2)CCCC1	24.2 µM	72.1 µM
CCN1C(=S)N(CC)C2C1NC(=S)N2/N=C/C=C/c1ccccc1OC (stereo unspecified)	0.338 µM	> 100 µM
Cn1nccc1Nc1nccc(-c2ccn([C@H](CO)c3ccc(Cl)c(F)c3)c(=O)c2)n1	5.02 µM	30.4 µM
CCOC(=O)c1nc(C)oc1C(F)(F)F		> 100 µM
N#CC1c2ccccc2C=CN1C(=O)CCCl (stereo unspecified)	2.36 µM	6.53 µM
O=C1/C(=C\c2ccccc2)CN(C(=O)CCN2CCCCC2)C/C1=C/c1ccccc1		0.364 µM
O=C1NC(=N[C@@H](CO)c2ccccc2)S/C1=C\c1ccc2ncccc2c1	7.25 µM	> 25 µM
Cc1ccc(S(=O)(=O)OCC/C(=C\[Si](C)(C)C)c2ccccc2)cc1		> 100 µM
O=C1/C(=C/c2ccc(Cl)c(Cl)c2)CN(C(=O)CCN2CCC(=NO)CC2)C/C1=C\c1ccc(Cl)c(Cl)c1	0.247 µM	0.708 µM
CCNc1nc(O)c(/C=C2\C=Nc3ncccc32)s1	3.42 µM	27.1 µM
CCc1ccccc1NC(=O)c1cccc([N+](=O)[O-])c1O		> 100 µM
O=C(/C=C/C12c3ccccc3C(c3ccccc31)C1C(=O)NC(=O)C12)c1ccccn1 (stereo unspecified)	1.69 µM	5.03 µM
CC1=C(C(=O)Nc2ccccc2)C(c2ccc(N(C)C)cc2)C(C(=O)Nc2ccccc2)=C(C)N1		> 83 µM

System: 786-0 renal
Test: DTP human tumour cell line panel, 48 h

Structure (SMILES)	GI50	TGI
c1ccc(-c2[nH]ncc2-c2ccnc(-c3ccc(OCCn4ccnc4)cc3)c2)nc1	> 25 µM	> 25 µM
O=C1c2cccc(Oc3ccccc3)c2C(=O)c2cccc(Oc3ccccc3)c21	27.5 µM	> 100 µM
O=C(OCc1ccc2c(Br)cc(Br)c(O)c2n1)c1cc2ccccc2[nH]1	0.851 µM	2.22 µM
CC(C)(CO)CNC(=O)c1ccc2[nH]c(O)c(N=Nc3ccc(S(N)(=O)=O)cc3)c2c1	> 25 µM	> 25 µM
Cc1cc(O)c2c(c1)C(=O)C=CC2=O	5.8 µM and 2.59 µM	12.9 µM and > 21.6 µM
CC1(C)N=C(N)N=C(N)N1c1ccc(CCC(=O)Nc2ccc(S(=O)(=O)F)cc2)cc1	0.529 µM	> 100 µM
N#CC1(c2ccc(NC(=O)c3cccnc3NCc3ccncc3)cc2)CCCC1	14.5 µM	49.6 µM
CCN1C(=S)N(CC)C2C1NC(=S)N2/N=C/C=C/c1ccccc1OC (stereo unspecified)	0.67 µM	> 52.3 µM
Cn1nccc1Nc1nccc(-c2ccn([C@H](CO)c3ccc(Cl)c(F)c3)c(=O)c2)n1	31.4 µM	> 100 µM
CCOC(=O)c1nc(C)oc1C(F)(F)F		> 100 µM
N#CC1c2ccccc2C=CN1C(=O)CCCl (stereo unspecified)	14 µM	28 µM
O=C1/C(=C\c2ccccc2)CN(C(=O)CCN2CCCCC2)C/C1=C/c1ccccc1		4.7 µM
O=C1NC(=N[C@@H](CO)c2ccccc2)S/C1=C\c1ccc2ncccc2c1	> 21.9 µM	> 25 µM
Cc1ccc(S(=O)(=O)OCC/C(=C\[Si](C)(C)C)c2ccccc2)cc1		> 100 µM
O=C1/C(=C/c2ccc(Cl)c(Cl)c2)CN(C(=O)CCN2CCC(=NO)CC2)C/C1=C\c1ccc(Cl)c(Cl)c1	0.609 µM	1.45 µM
CCNc1nc(O)c(/C=C2\C=Nc3ncccc32)s1	2.71 µM	> 100 µM
CCc1ccccc1NC(=O)c1cccc([N+](=O)[O-])c1O		> 100 µM
O=C(/C=C/C12c3ccccc3C(c3ccccc31)C1C(=O)NC(=O)C12)c1ccccn1 (stereo unspecified)	1.74 µM	4 µM
CC1=C(C(=O)Nc2ccccc2)C(c2ccc(N(C)C)cc2)C(C(=O)Nc2ccccc2)=C(C)N1		> 100 µM

System: UACC-62 melanoma
Test: DTP human tumour cell line panel, 48 h

Structure (SMILES)	GI50	TGI
c1ccc(-c2[nH]ncc2-c2ccnc(-c3ccc(OCCn4ccnc4)cc3)c2)nc1	> 25 µM	> 25 µM
O=C1c2cccc(Oc3ccccc3)c2C(=O)c2cccc(Oc3ccccc3)c21	> 100 µM	> 100 µM
O=C(OCc1ccc2c(Br)cc(Br)c(O)c2n1)c1cc2ccccc2[nH]1	1.16 µM	2.47 µM
CC(C)(CO)CNC(=O)c1ccc2[nH]c(O)c(N=Nc3ccc(S(N)(=O)=O)cc3)c2c1	> 25 µM	> 25 µM
Cc1cc(O)c2c(c1)C(=O)C=CC2=O		18.9 µM and 25.3 µM
CC1(C)N=C(N)N=C(N)N1c1ccc(CCC(=O)Nc2ccc(S(=O)(=O)F)cc2)cc1	0.388 µM	> 100 µM
N#CC1(c2ccc(NC(=O)c3cccnc3NCc3ccncc3)cc2)CCCC1	8.02 µM	23.9 µM
CCN1C(=S)N(CC)C2C1NC(=S)N2/N=C/C=C/c1ccccc1OC (stereo unspecified)	0.33 µM	25.6 µM
